# Assays:
# Type in all cases: cell-based
# [1] = test system: J774A.1 (Mouse BALB/c monocyte macrophage cell line) cells; test: LPS-induced TNF-α secretion inhibition in J774A.1 cells; details: J774.A1, 1 μM compound, graded compared to taurodeoxycholic acid (positive control), read-out: TNF-α production inhibition grade
# How it was run: (§1)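 Grades (A >100%, B 50–100%, C 20–50%, D <20%) express cytokine suppression by 1 μM compound relative to taurodeoxycholic acid. LPS-induced TNF-α and LPS+ATP-induced IL-1β secretion were measured in murine J774A.1 macrophage cells.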
# [2] = test system: J774A.1 (Mouse BALB/c monocyte macrophage cell line) cells; test: LPS+ATP-induced IL-1β secretion inhibition in J774A.1 cells; details: J774.A1, 1 μM compound, graded compared to taurodeoxycholic acid (positive control), read-out: IL-1β production inhibition grade
# How it was run: as §1
# [3] = test system: U937 cells (human monocytic cell line); test: Pam2CSK4-induced TNF-α secretion inhibition in PMA-differentiated U937 cells; details: U-937, U937 cells differentiated with PMA, read-out: TNF-α production inhibition grade (IC50)
# How it was run: (§2)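 Inhibition is given as IC50 (μM) in A-D bands, using distinct thresholds for TNF-α and for IL-1β. Secretion followed Pam2CSK4 stimulation (TNF-α) or BzATP stimulation (IL-1β) of compound-pretreated, PMA-differentiated U937 macrophages.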
# [4] = test system: U937 cells (human monocytic cell line); test: BzATP-induced IL-1β secretion inhibition in PMA-differentiated U937 cells; details: U-937, U937 cells differentiated with PMA, read-out: IL-1β production inhibition grade (IC50)
# How it was run: as §2
Compound,inhibition at 1 µM [1] [%],inhibition at 1 µM [2] [%],IC50 [3] [nM],IC50 [4] [nM]
CC[C@H]1[C@@H](O)[C@@H]2[C@H](CC[C@]3(C)[C@@H]([C@H](C)CCC(=O)N[C@@H](C)CS(=O)(=O)O)CC[C@@H]23)[C@@]2(C)CC[C@@H](O)C[C@@H]12 [NC40028],< 20,50 to 100,1000 to 2000,100 to 200
C[C@H](CCC(=O)N1CCC[C@H](S(=O)(=O)O)C1)[C@H]1CC[C@H]2[C@@H]3CC[C@@H]4C[C@H](O)CC[C@]4(C)[C@H]3C[C@H](O)[C@]12C [NC10026],< 20,> 100,1000 to 2000,< 50
CC[C@H]1[C@@H](O)[C@@H]2[C@H](CC[C@]3(C)[C@@H]([C@H](C)CCC(=O)N[C@@H](CS(=O)(=O)O)C(C)C)CC[C@@H]23)[C@@]2(C)CC[C@@H](O)C[C@@H]12 [NC40017],< 20,20 to 50,500 to 1000,≥ 200
C[C@H](CCC(=O)N[C@@H](C)CS(=O)(=O)O)[C@H]1CC[C@H]2[C@@H]3CC[C@@H]4CC(=O)CC[C@]4(C)[C@H]3CC[C@]12C [NC30028],< 20,< 20,500 to 1000,≥ 200
C[C@H](CCC(=O)N(CCN(C)C)CCS(=O)(=O)O)[C@H]1CC[C@H]2[C@@H]3CC[C@@H]4C[C@H](O)CC[C@]4(C)[C@H]3CC[C@]12C [NC10091],> 100,> 100,500 to 1000,< 50
C[C@H](CCC(=O)N[C@@H](C)CS(=O)(=O)O)[C@H]1CC[C@H]2[C@@H]3CC[C@@H]4C[C@H](O)CC[C@]4(C)[C@H]3CC[C@]12C [NC10084],< 20,< 20,< 500,≥ 200
CC(C)C[C@H](CS(=O)(=O)O)NC(=O)CC[C@@H](C)[C@H]1CC[C@H]2[C@@H]3CC[C@@H]4C[C@H](O)CC[C@]4(C)[C@H]3CC[C@]12C [NC10087],> 100,> 100,500 to 1000,< 50
C[C@H](CCC(=O)N(CCN(C)C)CCS(=O)(=O)O)[C@H]1CC[C@H]2[C@@H]3[C@H](O)C[C@@H]4C[C@H](O)CC[C@]4(C)[C@H]3C[C@H](O)[C@]12C [NC20035],< 20,< 20,1000 to 2000,50 to 100
C[C@H](CCC(=O)Nc1ccc(S(=O)(=O)O)cc1)[C@H]1CC[C@H]2[C@@H]3CC[C@@H]4C[C@H](O)CC[C@]4(C)[C@H]3CC[C@]12C [NC10015],< 20,< 20,≥ 2000,< 50
CC[C@H]1[C@@H](O)[C@@H]2[C@H](CC[C@]3(C)[C@@H]([C@H](C)CCC(=O)NCCC(=O)O)CC[C@@H]23)[C@@]2(C)CC[C@@H](O)C[C@@H]12 [NC40002],< 20,20 to 50,≥ 2000,≥ 200
CC[C@H]1[C@@H](O)[C@@H]2[C@H](CC[C@]3(C)[C@@H]([C@H](C)CCC(=O)N[C@@H](CS(=O)(=O)O)c4ccccc4)CC[C@@H]23)[C@@]2(C)CC[C@@H](O)C[C@@H]12 [NC40019],< 20,> 100,1000 to 2000,100 to 200
C[C@H](CCC(=O)N(CCS(=O)(=O)O)CC(N)=O)[C@H]1CC[C@H]2[C@@H]3CC[C@@H]4C[C@H](O)CC[C@]4(C)[C@H]3C[C@H](O)[C@]12C [NC10005],< 20,20 to 50,1000 to 2000,100 to 200
C[C@H](CCC(=O)N(CCS(=O)(=O)O)c1ccccc1)[C@H]1CC[C@H]2[C@@H]3CC[C@@H]4CC(=O)CC[C@]4(C)[C@H]3CC[C@]12C [NC30037],20 to 50,> 100,≥ 2000,< 50
CC(C)[C@@H](CS(=O)(=O)O)NC(=O)CC[C@@H](C)[C@H]1CC[C@H]2[C@@H]3CC[C@@H]4C[C@H](O)CC[C@]4(C)[C@H]3CC[C@]12C [NC10072],< 20,20 to 50,< 500,< 50
C[C@H](CCC(=O)N1CCN(C)CC1)[C@H]1CC[C@H]2[C@@H]3CC[C@@H]4C[C@H](O)CC[C@]4(C)[C@H]3C[C@H](O)[C@]12C [NC10019],< 20,20 to 50,500 to 1000,≥ 200
C[C@H](CCC(=O)N[C@H](Cc1ccccc1)CS(=O)(=O)O)[C@H]1CC[C@H]2[C@@H]3CC[C@@H]4C[C@H](O)CC[C@]4(C)[C@H]3CC[C@]12C [NC10071],< 20,> 100,< 500,< 50
C[C@H](CCC(=O)N1CC[C@H](S(=O)(=O)O)C1)[C@H]1CC[C@H]2[C@@H]3CC[C@@H]4C[C@H](O)CC[C@]4(C)[C@H]3C[C@H](O)[C@]12C [NC10048],< 20,50 to 100,< 500,50 to 100
C[C@H](CCC(=O)N(C)CCS(=O)(=O)O)[C@H]1CC[C@H]2[C@@H]3[C@H](O)C[C@@H]4C[C@H](O)CC[C@]4(C)[C@H]3C[C@H](O)[C@]12C [NC20004],< 20,> 100,500 to 1000,< 50
C[C@H](CCC(=O)N1CC(S(=O)(=O)O)C1)[C@H]1CC[C@H]2[C@@H]3CC[C@@H]4CC(=O)CC[C@]4(C)[C@H]3CC[C@]12C [NC30012],< 20,20 to 50,≥ 2000,≥ 200
C[C@H](CCC(=O)NC[C@@H](C)S(=O)(=O)O)[C@H]1CC[C@H]2[C@@H]3CC[C@@H]4C[C@H](O)CC[C@]4(C)[C@H]3C[C@H](O)[C@]12C [NC10039],20 to 50,50 to 100,500 to 1000,50 to 100
C[C@H](CCC(=O)N(CCS(=O)(=O)O)c1ccccc1)[C@H]1CC[C@H]2[C@@H]3[C@H](O)C[C@@H]4C[C@H](O)CC[C@]4(C)[C@H]3C[C@H](O)[C@]12C [NC20037],< 20,50 to 100,< 500,< 50
CC[C@H]1[C@@H](O)[C@@H]2[C@H](CC[C@]3(C)[C@@H]([C@H](C)CCC(=O)N[C@H](CC(C)C)CS(=O)(=O)O)CC[C@@H]23)[C@@]2(C)CC[C@@H](O)C[C@@H]12 [NC40031],< 20,< 20,1000 to 2000,≥ 200
CC[C@H]1[C@@H](O)[C@@H]2[C@H](CC[C@]3(C)[C@@H]([C@H](C)CCC(=O)N4CC[C@@H](S(=O)(=O)O)C4)CC[C@@H]23)[C@@]2(C)CC[C@@H](O)C[C@@H]12 [NC40034],20 to 50,> 100,< 500,< 50
C[C@H](CCC(=O)N1CCC[C@@H]1CS(=O)(=O)O)[C@H]1CC[C@H]2[C@@H]3CC[C@@H]4C[C@H](O)CC[C@]4(C)[C@H]3CC[C@]12C [NC10076],< 20,> 100,≥ 2000,50 to 100
C[C@H](CS(=O)(=O)O)NC(=O)CC[C@@H](C)[C@H]1CC[C@H]2[C@@H]3CC[C@@H]4CC(=O)CC[C@]4(C)[C@H]3CC[C@]12C [NC30029],< 20,20 to 50,500 to 1000,≥ 200
CC(C)N(CCS(=O)(=O)O)C(=O)CC[C@@H](C)[C@H]1CC[C@H]2[C@@H]3CC[C@@H]4C[C@H](O)CC[C@]4(C)[C@H]3CC[C@]12C [NC10058],< 20,> 100,≥ 2000,< 50
CC[C@H]1[C@@H](O)[C@@H]2[C@H](CC[C@]3(C)[C@@H]([C@H](C)CCC(=O)N[C@@H](Cc4ccccc4)CS(=O)(=O)O)CC[C@@H]23)[C@@]2(C)CC[C@@H](O)C[C@@H]12 [NC40014],< 20,> 100,500 to 1000,< 50
C[C@H](CCC(=O)NCCC(=O)O)[C@H]1CC[C@H]2[C@@H]3[C@H](O)C[C@@H]4C[C@H](O)CC[C@]4(C)[C@H]3C[C@H](O)[C@]12C [NC20002],50 to 100,50 to 100,≥ 2000,100 to 200
C[C@H](CCC(=O)NCCC(=O)O)[C@H]1CC[C@H]2[C@@H]3CC[C@@H]4CC(=O)CC[C@]4(C)[C@H]3CC[C@]12C [NC30002],< 20,50 to 100,1000 to 2000,100 to 200
